Measured values published in US5369104A, “Pyridazine compounds, their production and use” (Takeda Chemical Industries, Ltd., priority 1991, dated 1994).

Tested on: PAF-induced bronchoconstriction
Assay: Action against PAF-induced bronchoconstriction in guinea pigs (Konzett-R6essler method)
Assay type: in vivo, guinea pig (male Hartley)
Conditions: guinea pig; 10 mg/Kg orally, 1 hour before PAF (1 μg/Kg, i.v.); recorded for 15 minutes
Method: (Action against PAF-induced bronchoconstriction in guinea pigs)
Male Hartley guinea pigs (body weight 500 g) were used. The bronchoconstriction reaction in the guinea pig which has intravenously received PAF (1 μg/kg) was measured by the Konzett-R6essler method. The trachea of the guinea pig with its back fixed was incised under anesthesia condition with urethane (intraperitoneal injection, 1.50 g/Kg) and connected with an artificial respirator via a cannula. The branch of the tracheal cannula was connected with a transducer (7020 type, Ugobasile). Air was sent to the trachea at the volume of 3-7 ml/stroke, at the stroke of 70 strokes/min. at load pressure of 10cm H2 O to lung and overflowed air volume was recorded with Rectegraph (Recte-Hori-8s, Sanei Sokuki) via the transducer. After the guinea pig was treated with galamine (1 mg/Kg, i.v.), PAF (1 μg/Kg) dissolved in a physiological saline solution was administered to the guinea pig via a jugular venous cannula and the bronchoconstriction reaction induced thereby was recorded for 15 minutes. The drug (10 mg/Kg) suspended in a 5% gum arabic solution was administered orally 1 hour before the injection of PAF.
Action against PAF-induced bronchoconstriction of guinea pigs

`Cc1cc2nccn2nc1CCC(C)(C)CCS(N)(=O)=O` [Example 4, 6-(3,3-dimethyl-5-sulfamoyl-1-pentyl)-7-methylimidazo[1,2-b]pyridazine] was tested, and the “Inhibition (%) of PAF-induced bronchoconstriction” value was 86%.
